# Where two headings read alike, the source gives them in different places.
# Legend:
# [1] = Circular dichroism (CD) spectroscopy, α-helix content; format: physicochemical; details: based on [θ]222 and proposed formula, 50 mM phosphate buffer pH 7.4
# Procedure: FIG. 11. CD spectra of the MVP-1 and DP178. The spectra were recorded with 10 uM of DP178 and 2.5 uM of MVP-1 in a phosphate buffer (50 mM, pH 7.4) at 23° C.
# One application of the scaffolds is to induce special conformations of peptides. The circular dichroism (CD) spectra of the synthetic multivalent gp41 peptide (MVP-1) and peptide DP178 were recorded and compared (FIG. 11). It was shown that the multivalent assembling has a significant impact on the peptide conformation, leading to a great increase of the α-helical content for the peptide. […]
# Similarly, we measured the circular dichroism (CD) spectra of the cholic acid-based multivalent peptides (36a and 37b). […]
# The UV absorbance was run on Beckman DU 640 spectrophotometer. CD's spectrums were measured on Jasco-810 (CD-ORD) spectropolarimeter using quartz cuvette of 1 mm path length. […]
# The samples of tetravalent peptide 26, trivalent peptides 36a and 37b, template 3α, 7α, 12α-tri-(6-Amino-3-thia-hexy-oxyl)-24-hydroxyl-5β-cholane 32, and the single peptide DP178 were prepared in a concentration ranging from 2 to 18 μM in 50 mM phosphate buffer (pH 7.4). The exact concentration of each sample was detected by UV spectrometer just prior to CD measurement. […]
# [2] = test system: HIV-1; details: laboratory-adapted strains and primary isolates / different strains of HIV, cited from earlier work
# [3] = aqueous buffer pH 7.0; cited from earlier work
# [4] = Native gel filtration (aggregation); format: physicochemical; details: PBS, pH 7.2, 0.5 mM
# Source text: Accordingly, the tetravalent gp41 peptides 25 and 26, each of which contains 4 strands of the 36-mer HIV-1 gp41 peptide DP178 (T20) were synthesized (FIG. 7). […] In order to ligate the peptide to the maleimide cluster, a cysteine residue was introduced at the C-terminus of the peptide during solid phase peptide synthesis.
substance,measurement,setting,value
enfuvirtide,content of α-helix,[1],18%
same,inhibition of HIV membrane fusion,[2],potent and broadly inhibitory activities
same,inhibition of HIV membrane fusion,[2]; listed as T20,potently inhibit
same,concentration at which monomer/tetramer equilibrium and other aggregation patterns occur,[3],above 20 μM
same,concentration at which peptide is monomeric,[3],below 10 μM
same,aggregation under native gel filtration,[4],form aggregates

# — patent US7524821B2, “Scaffolded maleimide clusters for multivalent peptide assembly” (priority 2002, dated 2009)
